Consider six molecules from PMC9750858, “Rapid biosensor development using plant hormone receptors as reprogrammable scaffolds” (Nature Biotechnology, 2022).

Several values for one entry are separate records, joined by “and”; a condition that tells them apart may be missing. Equal entries are not always repeated. Where two headings read alike, the source gives them in different places.

The target in assay [1] is T1, PYR1^M (H60P, N90S) (Arabidopsis thaliana, UniProt O49686, H60P/N90S).
T1 construct: made in house; host or cells: E. coli (pET derivatives)
T1 sequence (O49686 1-191 H60P/N90S): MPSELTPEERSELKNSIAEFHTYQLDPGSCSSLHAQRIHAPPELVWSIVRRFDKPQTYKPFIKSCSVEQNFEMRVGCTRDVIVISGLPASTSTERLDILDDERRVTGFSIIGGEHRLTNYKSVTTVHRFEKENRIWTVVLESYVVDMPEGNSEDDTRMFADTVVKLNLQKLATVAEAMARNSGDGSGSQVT
T1 sequence (Q9CAJ0 179-511 C186S/R199A/D204A/S209V/H248S/F260E/C274S/D287K/S292N/S342A/M358I/N377A/R422E/N439S/M483K partner): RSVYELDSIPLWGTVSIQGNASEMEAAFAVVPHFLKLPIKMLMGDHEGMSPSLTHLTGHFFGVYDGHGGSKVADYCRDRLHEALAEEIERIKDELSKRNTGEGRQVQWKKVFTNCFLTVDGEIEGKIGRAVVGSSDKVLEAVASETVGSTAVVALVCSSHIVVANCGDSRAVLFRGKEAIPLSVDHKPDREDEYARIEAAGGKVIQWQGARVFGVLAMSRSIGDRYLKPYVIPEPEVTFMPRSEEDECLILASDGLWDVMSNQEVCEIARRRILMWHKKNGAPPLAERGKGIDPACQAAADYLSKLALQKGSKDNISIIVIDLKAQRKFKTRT
Put plainly: ELISA-like plate assay, immobilized PYR1^M, biotinylated ΔN-HAB1^T+, streptavidin-HRP. It counts as binding. The following applies: for ELISA signal generation, positive control (source data): PYR1^M tested with ABA, replicates, listed as + CNTRL. Background: In an ELISA, binding on a coated surface is turned into a signal by an enzyme label.

The target in assay [2] is T2, PYR1^DIAZI (Arabidopsis thaliana, UniProt O49686, A160V/E8G/F108Y/F159G/L87M/M158V/V81Y). Put plainly: Yeast transcriptional activation circuit Z4-PYR1/VP64-ΔN-HAB1, GFP reporter, PYR1^DIAZI. The following applies: read-out: EC50, yeast transcription circuit; PYR1^DIAZI, off-target ligand.
T2 sequence (Q9CAJ0 179-511): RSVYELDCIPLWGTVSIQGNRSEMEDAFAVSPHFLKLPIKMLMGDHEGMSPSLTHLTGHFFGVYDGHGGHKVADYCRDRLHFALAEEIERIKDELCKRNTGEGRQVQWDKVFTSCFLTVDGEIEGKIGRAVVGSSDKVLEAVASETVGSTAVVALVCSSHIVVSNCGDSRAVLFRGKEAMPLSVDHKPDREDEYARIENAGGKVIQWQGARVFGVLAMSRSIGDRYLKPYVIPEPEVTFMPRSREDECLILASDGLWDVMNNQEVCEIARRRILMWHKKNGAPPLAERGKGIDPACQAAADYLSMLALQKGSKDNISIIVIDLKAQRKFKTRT
T2 sequence (O49686 other isoform, or with tags, fused parts or gaps E8G/V81Y/L87M/F108Y/M158V/F159G/A160V): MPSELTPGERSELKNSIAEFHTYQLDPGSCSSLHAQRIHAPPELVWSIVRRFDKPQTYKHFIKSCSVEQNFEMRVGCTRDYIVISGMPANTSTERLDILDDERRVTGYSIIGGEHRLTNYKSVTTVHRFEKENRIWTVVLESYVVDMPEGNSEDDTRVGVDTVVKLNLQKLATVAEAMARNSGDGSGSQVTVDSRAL
Assay [3] deals with T2, PYR1^DIAZI. Put plainly: Split NanoLuc luciferase complementation in yeast, NLuc^N-PYR1^DIAZI/NLuc^C-HAB1. It counts as cell-based. Further details: >PYR1-DIAZI; expressed in transfected cells; host or cells: Saccharomyces cerevisiae BY4742. The following applies: Figure 4f(top), 3 replicates.
The target of assay [4] is T3, PYR1^PIRI / HAB1 (Arabidopsis thaliana, UniProt O49686, A160T/E130G/F159T/K59R/N119S/S122Q/S92M/V174A).
T3 construct: made in house
T3 sequence (O49686 with tags, fused parts or gaps K59R/S92M/N119S/S122Q/E130G/F159T/A160T/V174A): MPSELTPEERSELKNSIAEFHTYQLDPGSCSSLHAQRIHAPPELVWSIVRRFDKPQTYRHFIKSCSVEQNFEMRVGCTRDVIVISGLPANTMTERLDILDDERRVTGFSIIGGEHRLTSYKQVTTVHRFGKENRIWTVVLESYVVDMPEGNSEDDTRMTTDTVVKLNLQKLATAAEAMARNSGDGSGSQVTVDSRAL
Put plainly: Ligand/receptor-mediated PP2C (HAB1 phosphatase) inhibition, PYR1^PIRI. It counts as biochemical.

In assay [5] the target is T4, PYR1^PIRI (Arabidopsis thaliana, UniProt O49686, A160T/E130G/F159T/K59R/N119S/S122Q/S92M/V174A).
T4 construct: >PYR1-PIRI; expressed in transfected cells; host or cells: Saccharomyces cerevisiae BY4742
T4 sequence (Q9CAJ0 179-511, one chain of several, further chain): as the sequence (Q9CAJ0 179-511) above
Put plainly: Split NanoLuc luciferase complementation in yeast, NLuc^N-PYR1^PIRI/NLuc^C-HAB1. It is filed as cell-based.

For assay [6], the target named is NLuc^N-PYR1^WIN (Arabidopsis) (UniProt O49686).
Assay [7] concerns the target NLuc^N-PYR1^4F (Arabidopsis) (UniProt O49686).
In assay [8] the target is NLuc^N-PYR1^DIAZI (Arabidopsis) (UniProt O49686).
The target of assay [9] is NLuc^N-PYR1^PIRI (Arabidopsis) (UniProt O49686).
Assay [10] addresses T5, ABA-PYR1M complex (Arabidopsis thaliana, UniProt O49686, H60P/N90S).
T5 construct: c-myc (display detection tag); expressed in transfected cells; host or cells: yeast (surface display of PYR1^M); the HAB1 variants were recombinant and purified
T5 sequence (O49686 1-191 H60P/N90S): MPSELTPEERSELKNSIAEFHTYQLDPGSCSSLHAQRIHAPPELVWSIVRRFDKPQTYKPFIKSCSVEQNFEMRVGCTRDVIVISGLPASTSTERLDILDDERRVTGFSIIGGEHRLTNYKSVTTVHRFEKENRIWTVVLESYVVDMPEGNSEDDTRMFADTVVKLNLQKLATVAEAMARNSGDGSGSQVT
Put plainly: Yeast surface display titration of HAB1 variants against PYR1^M in the presence of 500 nM ABA. It counts as binding. The following applies: HAB1 variant for the ABA-PYR1M complex, 95% CI in brackets, read-out: KD2. On the procedure: For crystallographic structures, PYL2 and ΔN-HAB1^T+ were expressed in E. coli and purified as described previously. Assays for phosphatase activity and apparent Tm, measured via thermal challenge using yeast surface display, were performed essentially as previously described.
(a) Assessment of stabilized, inactivated 6xHis -MBP-ΔN -HAB1 variants. Experiments were repeated on two separat e days using independently generated batches of protein. Error bars indicate 1 SD of 3 measure ments . Sets of mutations f or each variant are noted in Supporting File 1.
MBP-ΔN -HAB1 variants using p-NPP.
HAB1 variants using YSD of PYR1M, in the presence of 500 nM ABA and 20 nM 6xHis -MBP-ΔN -HAB1 variant. The […]
here ref ers to streptavidin -phycoerythrin.
(b) Gating strategy for analysis of data shown in part (a). The f luorescence (a.u.) reported in part (a) is the gated ΔN - HAB 1T+ binding as measured by streptavidin -phycoeryt hrin (SAPE).

In the case of `CC1=CC(=O)CC(C)(C)[C@@]1(O)/C=C/C(C)=C\C(=O)O` [ABA, abscisic acid], the “ELISA signal generation, positive control (source data)” value in assay [1] (2 nM) was 2.266 and 2.046 and 2.24; in assay [1] (2 μM), 3.553 and 3.555 and 3.41. Further, the “Amax [AU 450 nm]” value in assay [1] (global fit, PYR1M/ABA/ΔN-HAB1T+ system, Biorep 1-3) was 2 AU 450 nm and 2.8 AU 450 nm. For the same molecule, the Kd in assay [1] (global fit, PYR1M/ABA/ΔN-HAB1T+ system, Biorep 1-3, read-out: KD1) is 820 nM and 780 nM and 2090 nM.

In general, EC50 refers to the concentration needed to bring the measured effect to its halfway point. Take `CCOP(=S)(OCC)SCn1nnc2ccccc2c1=O` [Azinphos-ethyl, azinphos-ethyl]: the EC50 in assay [2] is 1100 nM. The “Sensor signal (Figure 4f top), replicate values” in assay [3] ([Agonist] 1e-5 nM) was 19.1784 and 9.602 and 15.5607; in assay [3] ([Agonist] 0.5 nM), 28.6964 and 14.557 and 20.4786; in assay [3] ([Agonist] 1 nM) it was 22.2741 and 20.8671 and 16.0353; in assay [3] ([Agonist] 10 nM), 14.152 and 32.187 and 17.3809; in assay [3] ([Agonist] 100 nM) it was 20.787 and 38.118 and 25.3718; in assay [3] ([Agonist] 1000 nM) it was 52.3582 and 54.3696 and 50.5941. In addition, the “Sensor signal (Figure 4f top), replicate values” was 95.7293 and 70.2485 and 89.5341 in assay [3] ([Agonist] 10000 nM); 109.007 and 68.7025 and 93.3077 in [3] ([Agonist] 100000 nM).

`CCN(CC)c1nc(C)cc(OP(=S)(OC)OC)n1` [Pirimiphos-methyl, pirimiphos-methyl]: the EC50 in assay [4] is 58 nM; in assay [5], 19 nM. Moreover, in [4] (HAB1 inhibition and Y2H assays), the “ligand concentrations required for activation of PYR1^PIRI above background” value is “low-nanomolar concentrations”.

On to “NLuc^C-ΔN-HAB1 (from UniProt Q9CAJ0 179-511) (enzyme)”, for which the in vitro inhibition of ΔN-HAB1 phosphatase activity by recombinant 6×His-PYR1^WIN (50 nM receptor, 25 nM ΔN-HAB1, 4-methylumbelliferyl phosphate); EC50 of the ligand WIN 55,212-2 in [6] is 72 nM. Also, the in vitro inhibition of ΔN-HAB1 phosphatase activity by recombinant 6×His-PYR1^4F (25 nM receptor, 25 nM ΔN-HAB1, 4-methylumbelliferyl phosphate); EC50 of the ligand 4F-MDMB-BUTINACA in [7] amounted to 102 nM. This molecule also came in with a receptor-mediated inhibition of HAB1 phosphatase activity in vitro; EC50 of the ligand diazinon in assay [8] of 36 nM. Further, the receptor-mediated inhibition of HAB1 phosphatase activity in vitro; EC50 of the ligand pirimiphos-methyl in assay [9] is 58 nM.

B1: T+ (723): stabilized, catalytically inactive ΔN-HAB1 derivative with 15 mutations (pJS723) (protein)
chain: RSVYELDSIPLWGTVSIQGNASEMEAAFAVVPHFLKLPIKMLMGDHEGMSPSLTHLTGHFFGVYDGHGGSKVADYCRDRLHEALAEEIERIKDELSKRNTGEGRQVQWKKVFTNCFLTVDGEIEGKIGRAVVGSSDKVLEAVASETVGSTAVVALVCSSHIVVANCGDSRAVLFRGKEAIPLSVDHKPDREDEYARIEAAGGKVIQWQGARVFGVLAMSRSIGDRYLKPYVIPEPEVTFMPRSEEDECLILASDGLWDVMSNQEVCEIARRRILMWHKKNGAPPLAERGKGIDPACQAAADYLSKLALQKGSKDNISIIVIDLKAQRKFKTRT
modifications: biotinylated in the ELISA-like assays
As to B1, the Kd was found to be 2.13 nM in assay [10] (Biorep 1) and 4.76 nM in assay [10] (Biorep 2).

B2: WT (636): 6×His–MBP–ΔN-HAB1 (C186S, C274S) (protein)
chain: RSVYELDSIPLWGTVSIQGNRSEMEDAFAVSPHFLKLPIKMLMGDHEGMSPSLTHLTGHFFGVYDGHGGHKVADYCRDRLHFALAEEIERIKDELSKRNTGEGRQVQWDKVFTSCFLTVDGEIEGKIGRAVVGSSDKVLEAVASETVGSTAVVALVCSSHIVVSNCGDSRAVLFRGKEAMPLSVDHKPDREDEYARIENAGGKVIQWQGARVFGVLAMSRSIGDRYLKPYVIPEPEVTFMPRSREDECLILASDGLWDVMNNQEVCEIARRRILMWHKKNGAPPLAERGKGIDPACQAAADYLSMLALQKGSKDNISIIVIDLKAQRKFKTRT
For the molecule B2, the Kd in assay [10] (Biorep 1) is 2.53 nM; in [10] (Biorep 2), 5.01 nM.
